In data set [1] the test system is Caenorhabditis elegans. In words: Growth inhibition of Caenorhabditis elegans N2 L1 larvae under monoxenic condition assessed as reduction in body size at 42 mM incubated for 72 hrs by microscopic method relative to control. It is filed as functional, organism-based. To be noted: for IC50: N2, 72 h.
In data set [2] the test system is Caenorhabditis elegans. In words: Growth inhibition of Caenorhabditis elegans N2 L1 larvae under monoxenic condition with Escherichia coli food assessed as reduction in body size at 42 mM incubated for 72 hrs by microscopic method relative to control. It is filed as functional.
Data set [3] concerns Caenorhabditis elegans. In words: Growth inhibition of Caenorhabditis elegans N2 assessed as reduction in body size at 10 mM in presence of 125 mM D-glucose by microscopic method. It counts as functional, organism-based.
Data set [4] relates to Caenorhabditis elegans. In words: Growth inhibition of Caenorhabditis elegans N2 assessed as reduction in body size at 10 mM in presence of D-fructose by microscopic method. It is filed as functional, organism-based.
Data set [5] concerns Caenorhabditis elegans. In words: Growth inhibition of Caenorhabditis elegans N2 L1 larvae under axenic condition assessed as reduction in body size at 16 mM incubated for 7 days by microscopic method relative to control. It is filed as functional. The arrangement: scale not given: the % may be the effect or the level left. The settings on record: time 7 day.
The nature of data set [6]: Toxicity in Caenorhabditis elegans N2 under monoxenic condition with Escherichia coli food assessed as mortality at 42 mM incubated for 72 hrs by microscopic method relative to control. The settings on record: 42000 µM.
Data set [7] has as its system Caenorhabditis elegans. In words: Growth inhibition of Caenorhabditis elegans N2 L1 larvae under monoxenic condition with Escherichia coli food assessed as reduction in motility at 42 mM incubated for 72 hrs by microscopic method relative to control. It counts as functional, organism-based.
Data set [8] concerns Caenorhabditis elegans. In words: Growth inhibition of Caenorhabditis elegans N2 assessed as reduction in body size at 10 mM in presence of D-ribose by microscopic method. It is filed as functional, organism-based.

Structures are written as SMILES. Activity calls are given as the source filed them. The calls are words filed in the database; no cut-off is given here.

On to `OC[C@H]1OC(O)C[C@@H](O)[C@@H]1O` (stereo partly drawn), for which the IC50 with Caenorhabditis elegans [1] amounted to 19.5 mM.

For the compound `O=C[C@H](O)[C@@H](O)[C@H](O)CO`, in the data set with Caenorhabditis elegans [2], the result was inactive.

Take `OC1OC[C@@H](O)[C@H](O)[C@@H]1O` (stereo partly drawn): the result in the data set with Caenorhabditis elegans [2] was inactive.

In the case of `OC1OC[C@H](O)[C@@H](O)[C@@H]1O` (stereo partly drawn), the result in the data set on Caenorhabditis elegans [2] was inactive.

For `OC1OC[C@H](O)[C@@H](O)[C@H]1O` (stereo partly drawn), in the data set with Caenorhabditis elegans [2], the outcome was inactive.

As for `OC1OC[C@H](O)[C@H](O)[C@H]1O` (stereo partly drawn), the result in the data set with Caenorhabditis elegans [2] was inactive.

In the case of `OC[C@@H](O)C(O)[C@H](O)CO`, the result in the data set with Caenorhabditis elegans [2] was inactive.

Regarding `OC[C@@H]1OC(O)[C@@H](O)[C@H]1O` (stereo partly drawn), the outcome in the data set on Caenorhabditis elegans [2] was inactive.

For `OC[C@H]1OC(O)[C@H](O)[C@@H]1O` (stereo partly drawn), the result in the data set on Caenorhabditis elegans [2] was inactive.

For `OC1OC[C@@H](O)[C@@H](O)[C@@H]1O` (stereo partly drawn) [D-ARABINOSE], the outcome in the data set with Caenorhabditis elegans [3] and in the data set with Caenorhabditis elegans [7] was Active. Besides, the result in the data set on Caenorhabditis elegans [4] and in the data set on Caenorhabditis elegans [8] was inactive. Besides, the Activity in the data set on Caenorhabditis elegans [5] is 15.2%; in data set [6], “Non-Toxic”; in the data set with Caenorhabditis elegans [2] it was 7.8%; in the data set with Caenorhabditis elegans [1], “Dose-dependent effect”. The half-inhibitory concentration (IC50) with Caenorhabditis elegans [1] is 7.5 mM.

For orientation: IC50 means the concentration that inhibits the measured activity by half.
